For assay [1], the system named is human lung cancer cell line A549. As to the kind of experiment: Tumor cell growth inhibition, SRB staining, A549. It is filed as cell-based. The following applies: A549, 72 h. As to the method:
The growth inhibition assay of tumor cells was detected by sulforhodamine B (SRB) staining method. The specific steps were as follows: inoculating human colon cancer cell line HCT116 and human lung cancer cell line A549 (purchased from American Type Culture Collection, ATCC) at the logarithmic growth phase into a 96-well micro culture plate at an appropriate concentration of 4000 cells/well, 100 μL for each well; after culturing overnight, adding with the compound at different concentrations (100, 10, 1, 0.1, 0.01 μM) to react for 72 h, wherein triplicate wells were set up for each concentration, and solvent control wells with the corresponding concentration and zero wells without cells were also set up. After the completion of the reaction, the culture medium was removed from the adherent cells, the later was added with 10% (w/v) trichloroacetic acid (100 μL/well) at 4° C. to fix for 1 h, and then washed five times with distilled water. After drying at room temperature, 100 μL of SRB solution (4 mg/mL, dissolved in 1% glacial acetic acid) was added into each well, followed by incubation and staining for 15 min at room temperature. The uncombined SRB was removed by washing five times with 1% glacial acetic acid. After drying at room temperature, 100 μL of 10 mM Tris solution was added into each well, and the optical density (OD) at 515 nm was measured by a […] microplate reader. The inhibition rate of the drug to tumor cell growth was calculated according to the following equation: Inhibition rate (%)=(OD of control well-OD of drug well)/OD of control well×100%. The experiment was repeated twice.
For orientation: Sulforhodamine B stains cellular protein and so reports cell mass.

In another assay the target is HSP90α (Homo sapiens (Human), UniProt P07900). Description: Fluorescence polarization (FP) HSP90-alpha target binding assay. An excerpt:
In the present invention, the method of fluorescence polarization (FP) was used to establish the screening platform for HSP90-alpha inhibitors. The principle based on is to calculate fluorescence polarization values in horizontal and vertical directions by detecting molecular weight changes before and after interaction of fluorescent labeled small molecules with other molecules, in use for correlation analysis. If binding equilibria between the fluorescent labeled small molecule and the macromolecule is established, it moves slowly when excited, and the fluorescence polarization values measured will increase. If the fluorescent labeled small molecule binding to the macromolecule is replaced with other ligands, its rotational or inversional speed in free state will become faster, the emitted light would be depolarized with respect to the exciting light plane, and thus the polarized light value measured will decrease, so as to calculate the polarization value of the sample (the unit of polarization value is mP).
The fluorescent labeled small molecule used in the present invention was VER-00051001 (synthesized by reference to the synthetic method described in JMC, 2008, 51, 196-218). The reaction was carried out in a 384-well black plate, using the reaction hydrophobic protein HFB buffer: 100 mM Tris.Cl pH 7.4, 20 mM KCl, 6 mM MgCl2, 5 μg/mL BSA, 25 nM full-length Hsp90U, 10 nM VER-51001. The volume of the reaction system was […], containing 5 nM GM-BODIPY (geldanamycin), 30 nM HSP90 and the test small molecular compound or DMSO (dimethyl sulfoxide), wherein the DMSO content was 2% o. Additional two group wells were established, wherein the wells only added with HFB buffer were used as blank controls, and the wells further added with 5 nM GM-BODIPY were used as negative controls. The reaction was carried out at 4° C. for 12-16 hours. The mP value was measured by Biotek microplate reader at 485 nm of excitation wavelength and 535 nm of emission wavelength. The inhibition rate was calculated using the following equation: (Compound-free mP−Compound mP)/(Compound-free mP−negative control mP)×100%
(In fluorescence polarisation assays a small probe gives low polarisation when free and higher when bound to something large.)

The mark [2] stands for this setting: fluorescence polarization, read-out: Target binding ability HSP90α FP IC50.

For 22 compounds, EC50 and IC50 results are on record in patent US10035792B2, “Resorcinol derivative as HSP90 inhibitor” (priority 2015, dated 2018).

Where two headings read alike, the source gives them in different places.

The term EC50 denotes the concentration at which the effect is half-maximal. The term IC50 denotes the midpoint of a concentration-inhibition curve. In turn, `CCNC(=O)c1noc(-c2cc(C(C)C)c(O)cc2O)c1-c1ccc2c(n1)CCN(C)C2` [Example 11, 5-(2,4-dihydroxyl-5-isopropylphenyl)-N-ethyl-4-(6-methyl-5,6,7,8-tetrahydro-1,6-naphthyridin-2-yl)isoxazole-3-carboxamide] registered an EC50 in assay [1] of less than 20 nM. Moreover, on HSP90α (setting [2]), the IC50 fell in the range of 20 to 100 nM.

In the case of `CCNC(=O)c1noc(-c2cc(CC(C)C)c(O)cc2O)c1-c1ccc2c(c1)CCN(C)C2` [Example 33, 5-(5-isobutyl-2,4-dihydroxyl-phenyl)-N-ethyl-4-(2-methyl-1,2,3,4-tetrahydroisoquinolin-6-yl)isoxazole-3-carboxamide], the EC50 in assay [1] is greater than 100 nM. The IC50 at HSP90α (setting [2]) fell in the range of 20 to 100 nM.

The compound `CCNC(=O)c1noc(-c2cc(C(C)C)c(O)cc2O)c1-c1ccc2c(c1)C1CCC2N1C(C)C` (centres unmarked) [Example 7, 5-(2,4-dihydroxyl-5-isopropylphenyl)-N-ethyl-4-(9-isopropyl-1,2,3,4-tetrahydro-1,4-epiminonaphth-6-yl)isoxazole-3-carboxamide] came in with an EC50 in assay [1] of less than 20 nM. Also, on HSP90α, the concentration for half-maximal inhibition (IC50) lay within 20 to 100 nM.

In assay [1], `CCNC(=O)c1noc(-c2cc(C(C)C)c(O)cc2O)c1-c1ccc2c(c1)CCN(CCOC)C2` [Example 45, 5-(2,4-dihydroxyl-5-isopropylphenyl)-N-ethyl-4-(2-(2-methoxyethyl)-1,2,3,4-tetrahydroisoquinolin-6-yl)isoxazole-3-carboxamide] displayed an EC50 of 20 to 100 nM. For the same compound, at HSP90α (setting [2]), the IC50 is less than 20 nM.

In turn, `CC(C)c1cc(-c2noc(C(=O)NCCCO)c2-c2ccc3c(c2)CCN(C)C3)c(O)cc1O` [Example 66, 3-(2,4-dihydroxyl-5-isopropylphenyl)-N-(3-hydroxylpropyl)-4-(2-methyl-1,2,3,4-tetrahydroisoquinolin-6-yl)isoxazole-5-carboxamide] gave an EC50 in assay [1] of less than 20 nM. Further, the concentration for half-maximal inhibition (IC50) on HSP90α (setting [2]) is less than 20 nM.

Regarding `CC(C)c1cc(-c2onc(C(=O)NCC(F)(F)F)c2-c2ccc3c(c2)CCN(C)C3)c(O)cc1O` [Example 39, 5-(2,4-dihydroxyl-5-isopropylphenyl)-N-(2,2,2-trifluoroethyl)-4-(2-methyl-1,2,3,4-tetrahydroisoquinolin-6-yl)isoxazole-3-carboxamide], the EC50 in assay [1] was in the range of 20 to 100 nM. Moreover, on HSP90α (setting [2]), the IC50 is 20 to 100 nM.

In the case of `CCCNC(=O)c1noc(-c2cc(C(C)C)c(O)cc2O)c1-c1ccc2c(c1)CCN(C)C2` [Example 37, 5-(2,4-dihydroxyl-5-isopropylphenyl)-N-propyl-4-(2-methyl-1,2,3,4-tetrahydroisoquinolin-6-yl)isoxazole-3-carboxamide], in assay [1], the EC50 fell in the range of 20 to 100 nM. In addition, the half-inhibitory concentration (IC50) at HSP90α (setting [2]) was in the range of 20 to 100 nM.

In the case of `CCNC(=O)c1noc(-c2cc(Cl)c(O)cc2O)c1-c1ccc2c(c1)CCN(C)C2` [Example 31, 5-(2,4-dihydroxyl-5-chloro-phenyl)-N-ethyl-4-(2-methyl-1,2,3,4-tetrahydroisoquinolin-6-yl)isoxazole-3-carboxamide], the EC50 in assay [1] is greater than 100 nM. At HSP90α (setting [2]), the IC50 was in the range of 20 to 100 nM.

With `CCNC(=O)c1noc(-c2cc(CC)c(O)cc2O)c1-c1ccc2c(c1)CCN(C)C2` [Example 34, 5-(5-ethyl-2,4-dihydroxyl-phenyl)-N-ethyl-4-(2-methyl-1,2,3,4-tetrahydroisoquinolin-6-yl)isoxazole-3-carboxamide], the concentration for a half-maximal effect (EC50) in assay [1] was 20 to 100 nM. Besides, the IC50 on HSP90α (setting [2]) is less than 20 nM.

Take `CCNC(=O)c1noc(-c2cc(C3CC3)c(O)cc2O)c1-c1ccc2c(c1)CCN(C)C2` [Example 35, 5-(5-cyclopropyl-2,4-dihydroxyl-phenyl)-N-ethyl-4-(2-methyl-1,2,3,4-tetrahydroisoquinolin-6-yl)isoxazole-3-carboxamide]: the EC50 in assay [1] lay in the range of 20 to 100 nM. The IC50 at HSP90α (setting [2]) is less than 20 nM.

As for `CCNC(=O)c1noc(-c2cc(C(C)C)c(O)cc2O)c1-c1ccc2c(c1)CCN(CCCNC(C)=O)C2` [Example 54], the EC50 in assay [1] was greater than 100 nM. Moreover, on HSP90α (setting [2]), the IC50 lay within 20 to 100 nM.

For `CCNC(=O)c1noc(-c2cc(C(C)C)c(O)cc2O)c1-c1ccc2c(c1)CCN(C(=O)CCN(C)C)C2` [Example 57, 5-(2,4-dihydroxyl-5-isopropylphenyl)-4-(2-(3-(dimethylamino)propionyl)-1,2,3,4-tetrahydroisoquinolin-6-yl)-N-ethylisoxazole-3-carboxamide], in assay [1], the concentration for a half-maximal effect (EC50) was greater than 100 nM. For the same compound, the IC50 on HSP90α (setting [2]) lay in the range of 20 to 100 nM.

As for `CC(C)c1cc(-c2noc(C(=O)NCCF)c2-c2ccc3c(c2)CCN(C)C3)c(O)cc1O` [Example 65, 3-(2,4-dihydroxyl-5-isopropylphenyl)-N-(2-fluoroethyl)-4-(2-methyl-1,2,3,4-tetrahydroisoquinolin-6-yl)isoxazole-5-carboxamide], the EC50 in assay [1] was less than 20 nM. Further, the 50% inhibitory concentration (IC50) on HSP90α (setting [2]) was less than 20 nM.

Turning to `CCNC(=O)c1noc(-c2cc(C(C)C)c(O)cc2O)c1-c1ccc2c(c1)C1CCC2N1` (centres unmarked) [Example 4, 5-(2,4-dihydroxyl-5-isopropylphenyl)-N-ethyl-4-(1,2,3,4-tetrahydro-1,4-epiminonaphth-6-yl)isoxazole-3-carboxamide], the half-maximal effective concentration (EC50) in assay [1] was in the range of 20 to 100 nM. Moreover, the half-maximal inhibitory concentration (IC50) at HSP90α was in the range of 20 to 100 nM.

In the case of `CC(C)c1cc(-c2noc(C(N)=O)c2-c2ccc3c(c2)CCN(C)C3)c(O)cc1O` [Example 61, 3-(2,4-dihydroxyl-5-isopropylphenyl)-4-(2-methyl-1,2,3,4-tetrahydroisoquinolin-6-yl)isoxazol-5-carboxamide], the EC50 in assay [1] is less than 20 nM. The IC50 on HSP90α (setting [2]) is less than 20 nM.

In the case of `CCc1cnc(-c2noc(-c3cc(C(C)C)c(O)cc3O)c2-c2ccc3c(c2)CCN(CCO)C3)[nH]1` [Example 17, 4-(3-(5-ethyl-1H-imidazol-2-yl)-4-(2-(2-hydroxyethyl)-1,2,3,4-tetrahydroisoquinolin-6-yl)isoxazol-5-yl)-6-isopropylbenzene-1,3-diol], the EC50 in assay [1] lay within 20 to 100 nM. Besides, the 50% inhibitory concentration (IC50) at HSP90α (setting [2]) was 20 to 100 nM.

Turning to `CCNC(=O)c1noc(-c2cc(C(C)C)c(O)cc2O)c1-c1ccc2c(c1)CCN(CCC(=O)N(C)C)C2` [Example 56], the EC50 in assay [1] was greater than 100 nM. Moreover, the half-inhibitory concentration (IC50) on HSP90α (setting [2]) was in the range of 20 to 100 nM.

Consider `CCNC(=O)c1noc(-c2cc(C(C)C)c(O)cc2O)c1-c1ccc2c(c1)CCN(C(=O)CCN1CCOCC1)C2` [Example 58, 5-(2,4-dihydroxyl-5-isopropylphenyl)-N-ethyl-4-(2-(3-morpholino-4-yl-propionyl)-1,2,3,4-tetrahydroisoquinolin-6-yl)isoxazole-3-carboxamide], for which, in assay [1], the concentration for a half-maximal effect (EC50) was greater than 100 nM. Also, the IC50 at HSP90α (setting [2]) was in the range of 20 to 100 nM.

`CCNC(=O)c1noc(-c2cc(C(C)C)c(O)cc2O)c1-c1ccc2c(c1)CCCN(C)C2` [Example 26, 5-(2,4-dihydroxyl-5-isopropylphenyl)-N-ethyl-4-(2-methyl-2,3,4,5-tetrahydro-1H-benzo[c]azepin-7-yl)isoxazole-3-carboxamide] registered a concentration for a half-maximal effect (EC50) in assay [1] of 20 to 100 nM. In addition, the IC50 at HSP90α (setting [2]) is less than 20 nM.

In turn, `CCNC(=O)c1noc(-c2cc(C)c(O)cc2O)c1-c1ccc2c(c1)CCN(C)C2` [Example 32, 5-(2,4-dihydroxyl-5-methylphenyl)-N-ethyl-4-(2-methyl-1,2,3,4-tetrahydroisoquinolin-6-yl)isoxazole-3-carboxamide] had an EC50 in assay [1] greater than 100 nM. Besides, the IC50 on HSP90α (setting [2]) is less than 20 nM.

For `CCNC(=O)c1noc(-c2cc(C(C)C)c(O)cc2O)c1-c1cnc2c(c1)CN(C)CC2` [Example 19, 5-(2,4-dihydroxyl-5-isopropylphenyl)-N-ethyl-4-(6-methyl-5,6,7,8-tetrahydro-1,6-naphthyridin-3-yl)isoxazole-3-carboxamide], in assay [1], the EC50 was greater than 100 nM. In addition, the half-inhibitory concentration (IC50) at HSP90α (setting [2]) lay within 20 to 100 nM.

In the case of `CC(C)c1cc(-c2onc(C(=O)NCCF)c2-c2ccc3c(c2)CCN(C)C3)c(O)cc1O` [Example 40, 5-(2,4-dihydroxyl-5-isopropylphenyl)-N-(2-fluoroethyl)-4-(2-methyl-1,2,3,4-tetrahydroisoquinolin-6-yl)isoxazole-3-carboxamide], the EC50 in assay [1] was less than 20 nM. The IC50 at HSP90α (setting [2]) was less than 20 nM.
